Measurements published in patent publication US20250145600A1, “2-((4-((S)-2-(4-CHLORO-2-FLUOROPHENYL)-2-METHYLBENZO[D][1,3]DIOXOL-4-YL)PIPERIDIN-1-YL)METHYL)-1-(((S)-OXETAN-2-YL)METHYL)-1H-IMIDAZOLE DERIVATIVES AS ACTIVATORS OF THE GLP1 RECEPTOR FOR THE TREATMENT OF OBESITY” (Novartis AG, priority 2022, published 2025).

Target: human GLP1R (hGLP1R) (Homo sapiens, UniProt P43220)
Assay: Human GLP1R cAMP agonist assay (GloSensor cAMP Assay)
Assay type: cell-based
Details: HEK293-SNAP-hGLP1R-GloSensor cells; for Emax: cAMP activity as percent of GLP1 (7-36) EC100 control; for EC50: intracellular cAMP, 12 min at rt
Description: Compounds of formula (I) according to the invention were tested in the following cellular assays that measure the intracellular cAMP concentration, beta-arrestin recruitment and receptor internalization. The cAMP is generated by the activation of GLP1R. The extent to which the GLP1R is internalized into the cell and away from the plasma membrane following activation is also shown in Table 2. EC50 for each assay is defined as the concentration of the compound that leads to half of the maximum response (after baseline correction). Emax is defined as the maximum response observed for the test compound, normalized to the maximum response observed for the endogenous ligand (GLP1(7-36)) to GLP1R.
Human GLP1R cAMP Agonist Assay
The agonist activity of compounds was determined using the GloSensor™ cAMP Assay (Promega Corp.), which measures changes in the intracellular concentration of cAMP after ligand activation of GPCRs. The assay uses a biosensor encoded by pGloSensor™-22F cAMP plasmid (Promega, cat #E2301) with cAMP binding domains fused to a mutant form of Photinus pyralis luciferase. Binding to cAMP causes conformational changes that promote large increases in light output, which can be measured by a luminescence detector. HEK293-SNAP-hGLP1R-GloSensor cells stably overexpressing the human GLP1 receptor (hGLP1R) and pGloSensor™-22F were seeded in white 384-well poly-D-Lysine coated plates (Greiner Bio One, cat #781945) in CO2-independent media (Gibco cat #18045-088 with 1.0% FBS, 2 mM L-glutamine, penicillin and streptomycin) and incubated overnight at 37° C., 5% CO2 with humidity. The assay was started the following morning by adding an equal volume of CO2-independent media containing 4% v/v dilution of the GloSensor substrate (Promega, cat #E1291) to all wells. The cell plate was incubated at rt for 2 h in the dark. The Biomek 7 (Beckman Coulter) instrument was used for the liquid handling steps. To generate duplicate dose response curves, 3-fold serially diluted compounds were added in to the cell assay plate to a final volume of 60 μL with final concentrations ranging from 30 μM through 0.06 μM in CO2-independent media containing 0.1% BSA, 0.5 mM IBMX and 0.4% DMSO. In the same plate and assay buffer as the tested compounds, were EC100 control wells containing GLP1 (7-36) peptide (Bachem, cat #H-6795) at a final concentration of 2 nM and also EC0 control wells containing no peptide. This plate was incubated at rt in the dark for 12 min after adding the compounds to the cells. Luminescence was then measured with an Envision 2104 Multilabel reader with “TRF Light Unit, 337 nm” (PerkinElmer) using the Ultra-Sensitive protocol setting “384-well US luminescence detector” with the 384-well luminescence aperture, 0.1 seconds per well. cAMP activity was calculated as percent of the GLP1 (7-36) EC100 control wells: [(sample signal−mean EC0 signal)/(mean EC100 of GLP1 (7-36) signal−mean EC0 signal)}*100. Curve fitting for EC50 determinations was performed in the Helios module of the software package DAVID. The 4-parameter logistic model, Hill slope was used: y=Ainf+(A0−Ainf)/(1+(x/AC50)^Hill Slope) where y is the functional response; x is the compound concentration; A0 is the minimum value (at 0 dose); Ainf is the maximum value (at infinite dose); AC50 corresponds to the point of inflection (i.e. the point on the sigmoid shaped curve halfway between A0 and Ainf). The EC50 value was represented by the AC50 value calculated from Helios in μM. Emax is the maximal activity detected within the concentration range, derived from the fitted curve.
327 μL of Opti-MEM medium (Gibco, cat #31985-062) were mixed with 12 μL of FuGENE® HD (Promega, cat #E2311) and incubated at rt for 5 min. Then 8.2 μL (4 μg, 0.485 μg/μL solution) of pSNAP-hGLP1R plasmid (Cisbio, cat #PSNAP-GLP1) encoding human GLP1R (NCBI Reference Sequence: NM_002062.3) fused with Cisbio's SNAP tag was added in to the Fugene HD/Opti-MEM mix, and incubated at rt for 20 min. […]

Chain of human GLP1R (hGLP1R) (P43220 24-463): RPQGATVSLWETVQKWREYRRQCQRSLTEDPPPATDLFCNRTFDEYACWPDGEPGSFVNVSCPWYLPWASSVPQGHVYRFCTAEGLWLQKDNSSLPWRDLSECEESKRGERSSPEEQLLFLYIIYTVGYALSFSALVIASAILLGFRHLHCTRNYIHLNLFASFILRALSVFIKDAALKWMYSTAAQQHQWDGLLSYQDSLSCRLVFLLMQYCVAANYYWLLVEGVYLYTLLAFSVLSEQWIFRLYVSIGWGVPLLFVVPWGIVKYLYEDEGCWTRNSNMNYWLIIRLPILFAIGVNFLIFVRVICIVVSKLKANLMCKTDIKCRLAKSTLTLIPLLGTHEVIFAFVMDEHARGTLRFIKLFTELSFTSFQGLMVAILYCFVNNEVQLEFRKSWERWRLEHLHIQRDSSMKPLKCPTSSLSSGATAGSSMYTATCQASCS

| SMILES | Emax [%] | EC50 [pM] |
| --- | --- | --- |
| Cc1nc(CN2CCC(c3cccc4c3O[C@@](C)(c3ccc(Cl)cc3F)O4)CC2)n(C[C@H]2CCO2)c1-c1ncc(C(=O)O)o1 [Compound C-2, 2-(2-((4-((S)-2-(4-chloro-2-fluorophenyl)-2-methylbenzo[d][1,3]dioxol-4-yl)piperidin-1-yl)methyl)-4-methyl-1-(((R)-oxetan-2-yl)methyl)-1H-imidazol-5-yl)oxazole-5-carboxylic acid] | 108 | 149 |
| CCc1nc(CN2CCC(c3cccc4c3O[C@@](C)(c3ccc(Cl)cc3F)O4)CC2)n(C[C@H]2CCO2)c1-c1ncc(C(=O)O)o1 [Compound C-8, 2-(2-((4-((S)-2-(4-chloro-2-fluorophenyl)-2-methylbenzo[d][1,3]dioxol-4-yl)piperidin-1-yl)methyl)-4-ethyl-1-(((R)-oxetan-2-yl)methyl)-1H-imidazol-5-yl)oxazole-5-carboxylic acid] | 101 | 353 |
| CCc1nc(CN2CCC(c3cccc4c3O[C@@](C)(c3ccc(Cl)cc3F)O4)CC2)n(C[C@@H]2CCO2)c1-c1ncc(C(=O)O)o1 [Compound C-6, 2-(2-((4-((S)-2-(4-chloro-2-fluorophenyl)-2-methylbenzo[d][1,3]dioxol-4-yl)piperidin-1-yl)methyl)-4-ethyl-1-(((S)-oxetan-2-yl)methyl)-1H-imidazol-5-yl)oxazole-5-carboxylic acid] | 123 | 464 |
| Cc1nc(-c2nc(CN3CCC(c4cccc5c4O[C@@](C)(c4ccc(Cl)cc4F)O5)CC3)n(C[C@@H]3CCO3)c2C)oc1C(=O)O [Compound C-15, 2-(2-((4-((S)-2-(4-chloro-2-fluorophenyl)-2-methylbenzo[d][1,3]dioxol-4-yl)piperidin-1-yl)methyl)-5-methyl-1-(((S)-oxetan-2-yl)methyl)-1H-imidazol-4-yl)-4-methyloxazole-5-carboxylic acid] | 103 | 112 |
| Cc1nc(CN2CCC(c3cccc4c3O[C@@](C)(c3ccc(Cl)cc3F)O4)CC2)n(C[C@@H]2CCO2)c1-c1ccc(C(=O)O)o1 [Compound C-22, 5-(2-((4-((S)-2-(4-chloro-2-fluorophenyl)-2-methylbenzo[d][1,3]dioxol-4-yl)piperidin-1-yl)methyl)-4-methyl-1-(((S)-oxetan-2-yl)methyl)-1H-imidazol-5-yl)furan-2-carboxylic acid] | 119 | 350 |

Results, then the molecule that gave them:

| Emax [%] | EC50 [pM] | SMILES |
| --- | --- | --- |
| 106 |  | Cc1c(-c2cncc(C(=O)O)c2)nc(CN2CCC(c3cccc4c3O[C@@](C)(c3ccc(Cl)cc3F)O4)CC2)n1C[C@@H]1CCO1 [Compound C-23, 5-(2-((4-((S)-2-(4-chloro-2-fluorophenyl)-2-methylbenzo[d][1,3]dioxol-4-yl)piperidin-1-yl)methyl)-5-methyl-1-(((S)-oxetan-2-yl)methyl)-1H-imidazol-4-yl)nicotinic acid] |
| 105 | 48.4 | Cc1nc(CN2CCC(c3cccc4c3O[C@@](C)(c3ccc(Cl)cc3F)O4)CC2)n(C[C@H]2CCO2)c1-c1nc(C(=O)O)co1 [Compound C-3, 2-(2-((4-((S)-2-(4-chloro-2-fluorophenyl)-2-methylbenzo[d][1,3]dioxol-4-yl)piperidin-1-yl)methyl)-4-methyl-1-(((R)-oxetan-2-yl)methyl)-1H-imidazol-5-yl)oxazole-4-carboxylic acid] |
| 105 | 42.8 | Cc1nc(CN2CCC(c3cccc4c3O[C@@](C)(c3ccc(C#N)cc3F)O4)CC2)n(C[C@@H]2CCO2)c1-c1nc(C(=O)O)c(C)o1 [Compound C-11, 2-(2-((4-((S)-2-(4-cyano-2-fluorophenyl)-2-methylbenzo[d][1,3]dioxol-4-yl)piperidin-1-yl)methyl)-4-methyl-1-(((S)-oxetan-2-yl)methyl)-1H-imidazol-5-yl)-5-methyloxazole-4-carboxylic acid] |
